Results as given in patent publication US12667605B2, “Pharmaceutical composition for oral administration of a GLP-1 receptor agonist” (priority 2021, dated 2026).

Legend:
Format in all cases: in vitro ADME
pepsin [1] = molecular target: T1, pepsin (Sus scrofa, UniProt P00791); assay: Protection of semaglutide compared to Rybelsus under gastric conditions reproduced in vitro, with pepsin (Example 4, HPLC); details: buffered solution; simulated gastric medium pH 1.2 with pepsin (3.2 mg/mL); 0.05 mg/ml of semaglutide; T = 2 h; 37° C.
Procedure: (§1) The gastro-resistance tests with semaglutide were carried out at a concentration of 0.05 mg/mL (5 mg of semaglutide in final 100 mL). The simulated gastric medium was prepared following the same protocol as that described in Example 3.
(§2) The product Rybelsus® comprises Semaglutide, Sodium Salcaprozate (SNAC), Povidone, Microcrystalline Cellulose, and Magnesium Stearate. • Step 1) A 14 mg Rybelsus® tablet was used for the comparative tests and was dissolved in 50 mL of drinking water for thirty minutes with stirring. The final semaglutide concentration was 0.28 mg/mL. • Step 2) An effervescent tablet (according to Example 1A) was added or not to the solution obtained in step 1. After cessation of effervescence, 50 ml of 0.2 N HCL at pH 1.2 were added to obtain a final solution of 100 ml of 0.1 N HCL, which corresponds to the simulated gastric environment. The final concentration of semaglutide is 14 mg per 100 mL. • Step 3) The pepsin was then added or not to the solution obtained in step 2, at the conventional dose of 3.2 mg/ml. The test was carried out for 2 hours at a temperature of 37° C.
The semaglutide content was specifically assayed by high performance liquid chromatography (HPLC). The residual content was calculated by measuring the semaglutide content at time t relative to the initial semaglutide content. The result is a ratio expressed in percent (%). […]

[2] = Stability of semaglutide compared to Rybelsus in simulated gastric medium pH 1.2 without pepsin (Example 4, HPLC); details: for Residual semaglutide content in percent (%): buffered solution, simulated gastric medium pH 1.2 without pepsin, 0.05 mg/mL of semaglutide, 37° C.
Procedure: as §1, §2
The semaglutide content was specifically assayed by high performance liquid chromatography (HPLC). The residual content was calculated by measuring the semaglutide content at time t relative to the initial semaglutide content. The result is a ratio expressed in percent (%). The residual content of semaglutide corresponds to the percentage of protection of the semaglutide.

pepsin [3] = molecular target: T1, pepsin; assay: Protection of semaglutide under gastric conditions reproduced in vitro, with pepsin (Example 2, UHPLC-UV); details: for Semaglutide residual content (%): simulated gastric medium at pH 1.2 with pepsin (3.2 mg/ml), 0.05 mg/ml semaglutide, 37° C.
Procedure: (§3) The purpose of this test is to show the gastric stability of semaglutide in a composition according to the invention. • Step 1) The tablet obtained in Example 1A was dissolved in 50 mL of drinking water in order to obtain a buffered solution. • Step 2) The simulated gastric medium was prepared with hydrochloric acid (0.2 N HCl), adjusting the pH to 1.2. • Step 3) The buffered solution obtained in step 1) was mixed with 50 ml of simulated gastric medium, in order to obtain a final solution of 100 ml with 0.1 N HCL. • Step 4) Semaglutide was added to the solution obtained in step 3), in is order to obtain a final concentration of semaglutide of 0.05 mg/ml. • Step 5) Pepsin was added to the solution obtained in step 4) at a final concentration of 3.2 mg/ml or without addition of pepsin (without pepsin), and the solution obtained was kept under constant stirring at 37° C. for 2 hours.
(§4) The semaglutide assay was performed by ultra-high performance liquid chromatography (UHPLC) coupled to an ultraviolet (UV) detector using an external standard calibration. The residual semaglutide content was calculated by measuring the semaglutide content at time t relative to the initial semaglutide content. The result is a ratio expressed in percent (%). The residual content of semaglutide corresponds to the protection percentage of semaglutide.

[4] = Stability of semaglutide in simulated gastric medium at pH 1.2 without pepsin (Example 2, UHPLC-UV); details: for Semaglutide residual content (%): simulated gastric medium at pH 1.2 without pepsin, 0.05 mg/ml semaglutide, 37° C.
Procedure: as §3, §4

T1 sequence (P00791 60-385): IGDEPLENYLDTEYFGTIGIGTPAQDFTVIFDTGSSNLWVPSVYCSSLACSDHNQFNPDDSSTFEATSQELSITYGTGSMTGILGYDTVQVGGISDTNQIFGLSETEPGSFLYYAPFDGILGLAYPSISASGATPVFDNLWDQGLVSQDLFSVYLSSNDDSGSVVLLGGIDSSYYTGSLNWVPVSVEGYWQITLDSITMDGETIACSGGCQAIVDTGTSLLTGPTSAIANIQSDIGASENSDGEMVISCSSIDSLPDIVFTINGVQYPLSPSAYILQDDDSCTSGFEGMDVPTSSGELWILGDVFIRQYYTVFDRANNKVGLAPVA

Residual semaglutide content in percent (%) (pepsin [1]): 105.2% | Residual semaglutide content in percent (%) ([2]; T = 1 h): 103.5% | Residual semaglutide content in percent (%) ([2]; T = 2 h): 104.1% | stability of semaglutide (in words) ([2]; in the absence of pepsin, in the presence of the buffer system): stable | residual content (pepsin [3]; acid medium with pepsin and without a buffer system, time not given): 0% | Semaglutide residual content (%) (pepsin [3]; with the buffered solution (Example 1A tablet)): 104.6% | Semaglutide residual content (%) (pepsin [3]; without buffer system): 0% | degradation of semaglutide (in words) ([4]; formulated with a buffer system, after 2 hours, without pepsin): not degraded | Semaglutide residual content (%) ([4]; with the buffered solution (Example 1A tablet), T 0 h): 103.5% | Semaglutide residual content (%) ([4]; with the buffered solution (Example 1A tablet), T 2 h): 104.1% | Semaglutide residual content (%) ([4]; without buffer system, T 0 h): 100%
SMILES: CC[C@H](C)[C@H](NC(=O)[C@H](Cc1ccccc1)NC(=O)[C@H](CCC(=O)O)NC(=O)[C@H](CCCCNC(=O)COCCOCCNC(=O)COCCOCCNC(=O)CC[C@H](NC(=O)CCCCCCCCCCCCCCCCC(=O)O)C(=O)O)NC(=O)[C@H](C)NC(=O)[C@H](C)NC(=O)[C@H](CCC(N)=O)NC(=O)CNC(=O)[C@H](CCC(=O)O)NC(=O)[C@H](CC(C)C)NC(=O)[C@H](Cc1ccc(O)cc1)NC(=O)[C@H](CO)NC(=O)[C@H](CO)NC(=O)[C@@H](NC(=O)[C@H](CC(=O)O)NC(=O)[C@H](CO)NC(=O)[C@@H](NC(=O)[C@H](Cc1ccccc1)NC(=O)[C@@H](NC(=O)CNC(=O)[C@H](CCC(=O)O)NC(=O)C(C)(C)NC(=O)[C@@H](N)Cc1cnc[nH]1)[C@@H](C)O)[C@@H](C)O)C(C)C)C(=O)N[C@@H](C)C(=O)N[C@@H](Cc1c[nH]c2ccccc12)C(=O)N[C@@H](CC(C)C)C(=O)N[C@H](C(=O)N[C@@H](CCCNC(=N)N)C(=O)NCC(=O)N[C@@H](CCCNC(=N)N)C(=O)NCC(=O)O)C(C)C [semaglutide]
